For the test, the system named is HT-29 cells. Briefly: HT-29 necroptosis cell viability assay (TNF-α/SMAC mimetic/zVAD-FMK, CellTiter-Glo). In kind it is cell-based. The conditions noted are these: Homo sapiens. Summed up:
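HT-29 cells (~5,000/well, overnight) in FBS-free McCoy's 5A with TNF-α 10 ng/ml, SMAC mimetic 6 μM and zVAD-FMK 10 μM plus 10-point 1:3 compound titration, 20 h at 37°C. ATP measured by CellTiter-Glo luminescence; IC50 as geometric mean of duplicates.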
(In general: ATP-based viability assays read luminescence as a measure of living cells.)

Setting [1] is: HT-29, HT-29 necroptosis cell viability assay, class symbols for IC50, read-out: Activity.
[2] abbreviates: HT-29, HT-29 necroptosis cell viability, IC50 class symbols, read-out: Activity.
Setting [3] is: HT-29 cells stimulated with TNF-α (10 ng/ml), SMAC mimetic (6 μM) and zVAD-FMK (10 μM), 20 hours, CellTiter-Glo ATP luminescence, geometric mean IC50 from 10 points, read-out: Activity.
Setting [4] is: HT-29, HT-29 cells, necroptosis induced by TNF-α/SMAC mimetic/zVAD-FMK, CellTiter-Glo, read-out: Activity (IC50 class).

Molecules are shown by their SMILES. Where two headings read alike, the source gives them in different places.

With `CCOC1CN(c2cc(Oc3ccc(-n4ncn(Cc5c(Cl)cccc5Cl)c4=O)cc3)ccn2)C1` [Example 486, 4-(2,6-dichlorobenzyl)-2-(4-((2-(3-ethoxyazetidin-1-yl)pyridin-4-yl)oxy)phenyl)-2,4-dihydro-3H-1,2,4-triazol-3-one], under setting [1], the IC50 lay within 100 to 1000 nM.

Take `COC1(C#N)CN(c2cc(Oc3ccc(-n4ncn(Cc5c(F)cccc5F)c4=O)cc3)c(C)cn2)C1` [Example 320, 1-(4-(4-(4-(2,6-difluorobenzyl)-5-oxo-4,5-dihydro-1H-1,2,4-triazol-1-yl)phenoxy)-5-methylpyridin-2-yl)-3-methoxyazetidine-3-carbonitrile]: the IC50 under setting [2] is below 100 nM.

Consider `CC1(N)CN(c2nccc(Oc3ccc(-n4ncn(Cc5c(F)cccc5F)c4=O)cc3)c2F)C1` [Example 321, 2-(4-((2-(3-amino-3-methylazetidin-1-yl)-3-fluoropyridin-4-yl)oxy)phenyl)-4-(2,6-difluorobenzyl)-2,4-dihydro-3H-1,2,4-triazol-3-one], for which, under setting [2], the IC50 is below 100 nM.

Take `C[C@H]1C[C@@H](NC(=O)OC(C)(C)C)CN1c1cc(Oc2ccc(-n3ncn(Cc4c(F)cccc4F)c3=O)cc2F)ccn1` [Example 368, tert-butyl ((3R,5S)-1-(4-(4-(4-(2,6-difluorobenzyl)-5-oxo-4,5-dihydro-1H-1,2,4-triazol-1-yl)-2-fluorophenoxy)pyridin-2-yl)-5-methylpyrrolidin-3-yl)carbamate]: the IC50 under setting [2] fell in the range of 100 to 1000 nM.

As for `C[C@H]1[C@@H](N)CN1c1cc(Oc2ccc(-n3ncn(Cc4c(F)cccc4F)c3=O)cc2F)c(F)cn1` [Example 415, 2-(4-((2-((2S,3S)-3-amino-2-methylazetidin-1-yl)-5-fluoropyridin-4-yl)oxy)-3-fluorophenyl)-4-(2,6-difluorobenzyl)-2,4-dihydro-3H-1,2,4-triazol-3-one], the IC50 under setting [2] is below 100 nM.

Turning to `Cc1nc(C(C)(C)O)sc1Oc1ccc(-n2ncn(Cc3cnccc3Cl)c2=O)cc1F` [Example 467, 4-((4-chloropyridin-3-yl)methyl)-2-(3-fluoro-4-((2-(2-hydroxypropan-2-yl)-4-methylthiazol-5-yl)oxy)phenyl)-2,4-dihydro-3H-1,2,4-triazol-3-one], the IC50 under setting [2] is 100 to 1000 nM.

In the case of `Cc1nc(C(=O)NC2CCOCC2)sc1Oc1ccc(-n2nc3n(c2=O)[C@H](c2ccccc2)CC3)cc1F` (single isomer, unassigned) [Example 602], the IC50 under setting [1] was below 100 nM.

For the compound `Cc1nc(Br)sc1Oc1ccc(-n2ncn(Cc3cc(Cl)ccn3)c2=O)cc1F` [Example 573, 2-(4-((2-bromo-4-methylthiazol-5-yl)oxy)-3-fluorophenyl)-4-((4-chloropyridin-2-yl)methyl)-2,4-dihydro-3H-1,2,4-triazol-3-one], the IC50 under setting [1] was 100 to 1000 nM.

For `CN(c1cc(Oc2ccc(-n3ncn(Cc4c(F)cccc4F)c3=O)cc2)ccn1)C1CCC1` [Example 352, 2-(4-((2-(cyclobutyl(methyl)amino)pyridin-4-yl)oxy)phenyl)-4-(2,6-difluorobenzyl)-2,4-dihydro-3H-1,2,4-triazol-3-one], the IC50 under setting [2] lay within 100 to 1000 nM.

As for `Cc1cc(CO)n(Cc2ccc(-n3nc4n(c3=O)C(c3ccccc3)CC4)cc2F)n1` (centres unmarked) [Example 221, 2-(3-fluoro-4-((5-(hydroxymethyl)-3-methyl-1H-pyrazol-1-yl)methyl)phenyl)-5-phenyl-2,5,6,7-tetrahydro-3H-pyrrolo[2,1-c][1,2,4]triazol-3-one], under setting [1], the IC50 was 1000 to 10000 nM.

As for `Cc1cnn(C)c1Oc1ccc(-n2nc3n(c2=O)C(c2ccccc2)CC3)cc1F` (centres unmarked) [Example 175, 2-(4-((1,4-dimethyl-1H-pyrazol-5-yl)oxy)-3-fluorophenyl)-5-phenyl-2,5,6,7-tetrahydro-3H-pyrrolo[2,1-c][1,2,4]triazol-3-one], under setting [1], the IC50 was below 100 nM.

`Cc1nn(-c2ccc(S(=O)(=O)N3CCN(C4COC4)CC3)cc2)c(=O)n1Cc1ccccc1` [Example 623]: the IC50 under setting [1] is above 10000 nM.

Consider `NC(=O)c1scnc1Oc1ccc(-n2ncn(Cc3c(F)cccc3F)c2=O)cc1F` [Example 101, 4-(4-(4-(2,6-difluorobenzyl)-5-oxo-4,5-dihydro-1H-1,2,4-triazol-1-yl)-2-fluorophenoxy)thiazole-5-carboxamide], for which, under setting [3], the IC50 was 100 to 1000 nM.

`Cc1nc(C(C)(C)O)sc1Oc1ccc(-n2ncn(Cc3ncccc3C#N)c2=O)cc1F` [Example 129, 2-((1-(3-fluoro-4-((2-(2-hydroxypropan-2-yl)-4-methylthiazol-5-yl)oxy)phenyl)-5-oxo-1,5-dihydro-4H-1,2,4-triazol-4-yl)methyl)nicotinonitrile]: the IC50 under setting [1] lay in the range of 100 to 1000 nM.

For the compound `C[C@H]1C[C@@H](C#N)CN1c1cc(Oc2ccc(-n3ncn(Cc4c(F)cccc4F)c3=O)cc2F)c(F)cn1` [Example 284, (3R,5S)-1-(4-(4-(4-(2,6-difluorobenzyl)-5-oxo-4,5-dihydro-1H-1,2,4-triazol-1-yl)-2-fluorophenoxy)-5-fluoropyridin-2-yl)-5-methylpyrrolidine-3-carbonitrile], the IC50 under setting [2] is below 100 nM.

Consider `COC(=O)c1nc(C)c(Oc2ccc(-n3ncn(Cc4cc(Cl)ccn4)c3=O)cc2F)s1` [Example 10, methyl 5-(4-(4-((4-chloropyridin-2-yl)methyl)-5-oxo-4,5-dihydro-1H-1,2,4-triazol-1-yl)-2-fluorophenoxy)-4-methylthiazole-2-carboxylate], for which, under setting [3], the IC50 was in the range of 1000 to 10000 nM.

With `C[C@H]1[C@H](NC(=O)OC(C)(C)C)CN1c1cc(Oc2ccc(-n3ncn(Cc4c(F)cccc4F)c3=O)cc2F)c(F)cn1` [Example 376, tert-butyl ((2S,3R)-1-(4-(4-(4-(2,6-difluorobenzyl)-5-oxo-4,5-dihydro-1H-1,2,4-triazol-1-yl)-2-fluorophenoxy)-5-fluoropyridin-2-yl)-2-methylazetidin-3-yl)carbamate], the IC50 under setting [2] is below 100 nM.

Turning to `Cc1ncc(C#N)cc1Oc1ccc(-n2ncn(Cc3c(F)cccc3F)c2=O)cc1` [Example 518, 5-(4-(4-(2,6-difluorobenzyl)-5-oxo-4,5-dihydro-1H-1,2,4-triazol-1-yl)phenoxy)-6-methylnicotinonitrile], under setting [1], the IC50 is 1000 to 10000 nM.

Turning to `Cc1nc(C(N)=O)sc1Oc1ccc(-n2nc3n(c2=O)[C@H](C2CCCC2)CC3)cc1F` (single isomer, unassigned) [Example 702], the IC50 under setting [3] was below 100 nM.

Turning to `CC(C)(C)OC(=O)Nc1cc(Oc2ccc(-n3ncn(Cc4c(F)cccc4F)c3=O)cc2)ccn1` [Example 309, tert-butyl (4-(4-(4-(2,6-difluorobenzyl)-5-oxo-4,5-dihydro-1H-1,2,4-triazol-1-yl)phenoxy)pyridin-2-yl)carbamate], the IC50 under setting [2] was below 100 nM.

Consider `C[C@H]1[C@@H](O)CN1c1cc(Oc2ncc(-n3ncn(Cc4c(F)cccc4F)c3=O)cc2F)ccn1` [Example 250, 4-(2,6-difluorobenzyl)-2-(5-fluoro-6-((2-((2S,3S)-3-hydroxy-2-methylazetidin-1-yl)pyridin-4-yl)oxy)pyridin-3-yl)-2,4-dihydro-3H-1,2,4-triazol-3-one], for which the IC50 under setting [2] is below 100 nM.

As for `CCOC(=O)c1nc(COc2ccc(-n3ncn(Cc4c(F)cccc4F)c3=O)cc2F)cs1` [Example 654, Ethyl 4-((4-(4-(2,6-difluorobenzyl)-5-oxo-4,5-dihydro-1H-1,2,4-triazol-1-yl)-2-fluorophenoxy)methyl)thiazole-2-carboxylate], the IC50 under setting [4] was 1000 to 10000 nM.

As for `O=c1n(Cc2c(F)cccc2F)cnn1-c1ccc(Oc2ccnc(N3CCCC3)c2)cc1` [Example 525, 4-(2,6-difluorobenzyl)-2-(4-((2-(pyrrolidin-1-yl)pyridin-4-yl)oxy)phenyl)-2,4-dihydro-3H-1,2,4-triazol-3-one], under setting [1], the IC50 was in the range of 100 to 1000 nM.

Consider `C[C@H]1[C@@H](C#N)CN1c1nccc(Oc2ccc(-n3ncn(Cc4c(F)cccc4F)c3=O)cc2)c1F` [Example 242, (2S,3S)-1-(4-(4-(4-(2,6-difluorobenzyl)-5-oxo-4,5-dihydro-1H-1,2,4-triazol-1-yl)phenoxy)-3-fluoropyridin-2-yl)-2-methylazetidine-3-carbonitrile], for which the IC50 under setting [2] is below 100 nM.

As to `COC(=O)c1nc(C)c(Oc2ncc(-n3ncn(Cc4c(F)cccc4F)c3=O)cc2F)s1` [Example 646, methyl 5-((5-(4-(2,6-difluorobenzyl)-5-oxo-4,5-dihydro-1H-1,2,4-triazol-1-yl)-3-fluoropyridin-2-yl)oxy)-4-methylthiazole-2-carboxylate], the IC50 under setting [4] is below 100 nM.

As to `O=c1n(Cc2c(F)cccc2F)cnn1-c1ccc(Oc2ccnc(N3CCC4(COC4)C3)c2)cc1` [Example 333, 2-(4-((2-(2-oxa-6-azaspiro[3.4]octan-6-yl)pyridin-4-yl)oxy)phenyl)-4-(2,6-difluorobenzyl)-2,4-dihydro-3H-1,2,4-triazol-3-one], the IC50 under setting [2] was below 100 nM.

`COC(=O)c1nc(C)c(Oc2ncc(-n3ncn(Cc4c(F)cccc4F)c3=O)cc2Cl)s1` [Example 649, methyl 5-((3-chloro-5-(4-(2,6-difluorobenzyl)-5-oxo-4,5-dihydro-1H-1,2,4-triazol-1-yl)pyridin-2-yl)oxy)-4-methylthiazole-2-carboxylate]: the IC50 under setting [4] was below 100 nM.

For `Cc1cc(C(N)=O)c(C)n1Cc1ccc(-n2ncn(Cc3c(F)cccc3F)c2=O)cc1F` [Example 219, 1-(4-(4-(2,6-difluorobenzyl)-5-oxo-4,5-dihydro-1H-1,2,4-triazol-1-yl)-2-fluorobenzyl)-2,5-dimethyl-1H-pyrrole-3-carboxamide], the IC50 under setting [1] was below 100 nM.

On to `Cc1nc(C(C)(C)O)sc1Oc1ccc(-n2ncn(Cc3ncccc3Cl)c2=O)cc1F` [Example 466, 4-((3-chloropyridin-2-yl)methyl)-2-(3-fluoro-4-((2-(2-hydroxypropan-2-yl)-4-methylthiazol-5-yl)oxy)phenyl)-2,4-dihydro-3H-1,2,4-triazol-3-one], for which the IC50 under setting [2] is below 100 nM.

These data come from patent publication US20250179061A1 (SIRONAX LTD., priority 2022, published 2025).
